Test results as given in patent publication US20220062233A1 (The Board of Trustees of the Leland Stanford Junior …, priority 2018, published 2022).

Assays:
[1] = biological target: T1, interaction between Supt4h and NGN (subunit of Supt5h) (Homo sapiens, UniProt O00267+P63272); experiment: Split Gaussia luciferase complementation assay (M2-8 Luciferase); format: cell-based; conditions: M2-8 cells
T1 construct: expressed in transfected cells
Protocol: A. Split Gaussia Luciferase Complementation Assay […]
i: pNBR-X1-Supt4-Gluc1 and pNEBR-X1-NGN-Gluc2
The HA-Supt4h and Flag-NGN fragments are amplified by PCR using the plasmid pHA-Supt4h-YC and pFlag-NGN-YN and sub-cloned individually into pcDNA3.1-Gluc1 and pcDNA3.1-Gluc2 (described in “A highly sensitive protein-protein interaction assay based on Gaussia luciferase” published at Nat Methods. 2006 December; 3(12):977-9. Epub 2006 Nov. 12). Then HA-Supt4h-Gluc1 and Flag-NGN-Gluc2 are amplified by PCR and inserted to pNEBR-X1-Hygro (New England BioLabs), which contain RheoSwitch responsive element under the control of RheoSwitch ligand. […]
ii: pNEBR-X1-Supt4h-G1-NGN-G2
PCR products containing the sequence from 5XRE to polyA in pNEBR-X1-NGN-G2 are inserted to pNEBR-X1-Supt4h-G1 at Pcil site to generate Supt4h-G1 and NGN-G2 bidirectional under their own RheoSwitch responsive element and polyA in the same plasmid. […]
b. Stable Cloned Cell Line i: 293-R1 is a cloned cell line which is engineered to constitutively express RSL1 receptor/activator by transfecting HEK 293 cells with pNEBR-R1 plasmid (New England BioLabs) and selected with blasticidin. […]
ii: M2-8 is a cloned 293-R1 cell which can inducibly express pNEBR-X1-Supt4h-G1-NGN-G2 by addition of RSL1. Two point mutations ([…] and M110I) are introduced to the GL1 and GL2 for better stability according to “A high-throughput cell-based Gaussia luciferase reporter assay for identifying modulators of fibulin-3 secretion” published in J Biomol Screen. 2013 July; 18(6):647-58. The cell line is selected by hygromycin. […]
c. Cell Culture and Transfection Condition
All the HEK-293 cells and derivative clones are maintained in DMEM containing 10% FBS plus corresponding antibiotics (250 μg/ml hygromycin B, 10 μg/ml blasticidin or both) at 37° C., 5% CO2. All the transfections are done by using Lipofectamine 2000 (Invitrogen) according to the manufacturer's instructions. […]
d. Bioluminescence Assay from Cell Lysates
Plasmids harboring the Gluc1 and Gluc2 are co-transfected in a 1:1 ratio into 293-R1 cells plated on tissue culture treated 24-well plates using Lipofectamine 2000 according to the manufacturer's instructions. For stable M2-8 cells, the cells are directly plated into 96-well or 384-well white plates. Twenty-four hours later, RheoSwitch ligand with or without test compound is added to the cells for induction/drug treatment. After 24 hr, the cells are washed with PBS and the plate was stored at −20° C. overnight. Lysis buffer [30 mM Tris-HCl (pH 8.0) 5 mM NaCl, 0.1% Triton X-100] with 10 μg/ml native coelenterazine (Nanolight Technology) is then added to the cells at room temperature for one hour in the dark. After shaking for about 1 min, 40 μl of cell lysate are transferred to a white 96-well plate. For M2-8 in white micro plate, no transfer is needed. Signal intensities (integrated 100 ms) were read on Tecan Infinite M200 or M1000.
The split Gaussia luciferase complementation assay measures the interaction between Sup4h and NGN. NGN is the subunit of Supt5h that binds to Supt4h.

M2-8 cells = experiment: M2-8 Cell viability Assay; format: cell-based; conditions: at the concentration of 1000 nM
mutant HTT [2] = experiment: Mutant HTT assay in lymphoblastoid cells (LBC), Western blot; format: cell-based, human; conditions: read-out: LBC IC20 (nM) mHTT, 3 days compound treatment
Protocol: (§1) B. Mutant and Wild-Type HTT Assay in Lymphoblastoid Cells (LBC)
(§2) a. Cell Culturing and Compound Treatment
(§3) Lymphoblastoid cells derived from a Huntington's disease patient with 250 CAG repeats in the mutant HTT allele (GM14044 from Coriell Institute) were cultured in RPMI 1640 (Corning Cellgro, 10-040-CV) containing fetal bovine serum (Atlanta Biologicals, S11150). 4×10^5 cells were seeded on a 24-well plate and incubated with testing compound for 3 days. The cell suspension was then transferred to a 1.5 ml Eppendorf tube. Cells were collected by centrifugation and washed once with PBS. After all liquid was removed, the cell pellet was placed at −80° C. for at least 10 minutes. Lysis buffer [30 mM Tris-HCl (pH 8.0), 5 mM NaCl, 0.1% Triton X-100] with the proteinase inhibitor cocktail (P8340 from Sigma-Aldrich) was then added to the cells. Following centrifugation (14 k rpm for 15 min at 4° C.), the supernatant was collected. The protein concentrations were determined by BCA assay (Pierce, ThermoFisher).
(§4) Equal amounts of protein were loaded onto 4-12% gel (Invitrogen, WG1403A). After electrophoresis, the gels were transferred to nitrocellulose membranes by wet transfer at 72V for 3 hrs. […] The protein levels of mutant HTT, wild-type HTT, TBP, and tubulin were determined by immunoblotting with anti-polyQ specific antibody (clone MW1), anti-Huntingtin antibody (Abcam, ab45169), anti-TBP antibody (Sigma, T1827) and anti-alpha tubulin antibody (Sigma, T9026). Blots were imaged on a Li-Cor Odyssey infrared imager. The band intensities were determined by Li-Cor Odyssey software.

wild-type HTT = experiment: Wild-type HTT assay in lymphoblastoid cells (LBC), Western blot; format: cell-based, human; conditions: 3 days compound treatment, read-out: LBC IC20 (nM) wtHTT
Protocol: as §1, §2, §3, §4

[3] = tested on: Lymphoblastoid cells (GM14044); experiment: LBC cell viability (Cell Titer-Glo); format: cell-based, human; conditions: at the concentration of IC20, 3-day compound treatment
Protocol: Cell viability was determined by Cell Titer-Glo reagent (Promega, PRG9243). After 3-day compound treatment, 15 μl of cell suspension was taken out from plate and incubated with 10 μl of CTG reagent. The values of reaction mixture were detected by Tecan.

mutant HTT [4] = experiment: Mutant HTT assay in induced pluripotent stem cells (iPSC); format: cell-based, human; conditions: HD patient iPSCs, one day incubation, read-out: iPSC IC20 (nM) mHTT
Protocol: C. Mutant HTT Assay in Induced Pluripotent Stem Cells (iPSC) a. Cell Culturing and Compound Treatment
Huntington's disease patient iPSCs (ND50036 from NINDS) were detached into single cells by Accutase (25058CI from Corning), counted and plated on a 24-well plate coated with Matrigel (354277 from Corning) at density of 7,000 cells/well. After 48 hrs, compounds were added to the cell culture medium mTeSR1 (85850 from StemCell Technologies) and the cells were incubated for one day. The medium was then removed, and the cells were washed with PBS. After all liquid was removed, the plate was placed at −80° C. overnight. Lysis buffer [30 mM Tris-HCl (pH 8.0), 5 mM NaCl, 0.1% Triton X-100] with the complete proteinase inhibitor cocktail (5892791001 from Sigma-Aldrich) was then added to the cells. Cell samples were lysed on an orbital plate shaker at 4° C. at 700 rpm for 30 min. The supernatants from spinning (14 k rpm for 10 min) were collected. The protein concentrations were determined by BCA assay (23225 from Pierce, ThermoFisher). […]
b. Detection of Mutant HTT Protein
Equal amounts of protein lysate collected from each sample were added to a 96-well plate that had been coated with a human HTT specific monoclonal antibody. After washing away any unbound substances, a biotinylated anti-human mutant HTT specific detection antibody was added. Streptavidin-horseradish peroxidase was subsequently added, followed by TMB Substrate Solution, which yielded a blue product that turns yellow when the Stop Solution was added. The intensity of the color measured was in proportion to the amount of mutant HTT bound in the initial step. The mutant HTT values are then interpolated from a standard curve.

[5] = tested on: Huntington's disease patient iPSCs (ND50036); experiment: iPSC viability at IC20; format: cell-based, human; conditions: at the concentration of IC20

| SMILES | IC50 [1] | M2-8 Cell viability (M2-8 cells) | IC20 (mutant HTT [2]) | IC20 (wild-type HTT) | LBC viability at IC20 [3] | IC20 (mutant HTT [4]; class symbols) | iPSC viability at IC20 [5] | IC20 (mutant HTT [4]; numeric bounds) |
| --- | --- | --- | --- | --- | --- | --- | --- | --- |
| C[C@@H](N[C@@H]1CCCc2c1[nH]c1ccc(Br)cc21)c1ccccc1 (single isomer, unassigned) [Compound 13] | ≤ 100 nM | + (cell viability is greater than 50% at the concentration of 1000 nM) | 101 to 300 nM | > 1000 nM | * (cell viability is greater than 60% at the concentration of IC20) | < 100 nM | + (cell viability is greater than 75% at the concentration of IC20) |  |
| CC(C)(O)c1cccc(CN[C@@H]2CCCc3c2[nH]c2ccc(Br)cc32)c1 (single isomer, unassigned) [Compound 58] | 101 to 300 nM | + (cell viability is greater than 50% at the concentration of 1000 nM) | 101 to 300 nM | > 1000 nM | * (cell viability is greater than 60% at the concentration of IC20) |  |  | > 100 nM |
| COC(=O)c1cccc(CN[C@@H]2CCCc3c2[nH]c2ccc(Br)cc32)c1 (single isomer, unassigned) [Compound 59] | 101 to 300 nM | + (cell viability is greater than 50% at the concentration of 1000 nM) | 101 to 300 nM | > 1000 nM | * (cell viability is greater than 60% at the concentration of IC20) |  |  | > 100 nM |
| C#Cc1ccc2[nH]c3c(c2c1)CCC[C@H]3NCc1ccccc1 [Compound 5, (R)—N-benzyl-6-ethynyl-2,3,4,9-tetrahydro-1H-carbazol-1-amine] | ≤ 100 nM | + (cell viability is greater than 50% at the concentration of 1000 nM) | < 100 nM | > 1000 nM | * (cell viability is greater than 60% at the concentration of IC20) |  |  | > 100 nM |
| Brc1ccc2[nH]c3c(c2c1)CCC[C@H]3NCc1cccnc1 [Compound 32, (R)-6-bromo-N-(pyridin-3-ylmethyl)-2,3,4,9-tetrahydro-1H-carbazol-1-amine] | 101 to 300 nM | + (cell viability is greater than 50% at the concentration of 1000 nM) | < 100 nM | > 1000 nM | * (cell viability is greater than 60% at the concentration of IC20) |  |  | > 100 nM |
| Brc1ccc2[nH]c3c(c2c1)CCC[C@H]3NCc1ccccn1 [Compound 33, (R)-6-bromo-N-(pyridin-2-ylmethyl)-2,3,4,9-tetrahydro-1H-carbazol-1-amine] | 101 to 300 nM | + (cell viability is greater than 50% at the concentration of 1000 nM) | 301 to 1000 nM | > 1000 nM | * (cell viability is greater than 60% at the concentration of IC20) |  |  | > 100 nM |
| Brc1ccc2[nH]c3c(c2c1)CCC[C@H]3NCc1cccc(I)c1 [Compound 41, (R)-6-bromo-N-(3-iodobenzyl)-2,3,4,9-tetrahydro-1H-carbazol-1-amine] | ≤ 100 nM | + (cell viability is greater than 50% at the concentration of 1000 nM) | 101 to 300 nM | > 1000 nM | * (cell viability is greater than 60% at the concentration of IC20) |  |  | > 100 nM |
| C=C(C)c1ccc(CN[C@@H]2CCCc3c2[nH]c2ccc(Br)cc32)s1 [Compound 68] | ≤ 100 nM | + (cell viability is greater than 50% at the concentration of 1000 nM) | 101 to 300 nM | > 1000 nM | * (cell viability is greater than 60% at the concentration of IC20) |  |  | > 100 nM |
| Brc1ccc2[nH]c3c(c2n1)CCC[C@H]3NCc1ccccc1 [Compound 69] | ≤ 100 nM | + (cell viability is greater than 50% at the concentration of 1000 nM) |  |  |  | < 100 nM | + (cell viability is greater than 75% at the concentration of IC20) |  |
| OC1(c2ccc(CN[C@@H]3CCCc4c3[nH]c3ccc(Br)nc43)s2)CC1 [Compound 70] | ≤ 100 nM | + (cell viability is greater than 50% at the concentration of 1000 nM) |  |  |  | < 100 nM | + (cell viability is greater than 75% at the concentration of IC20) |  |
| OC1(c2ccc(CN[C@@H]3CCCc4c3[nH]c3ccc(Br)nc43)cc2)CC1 [Compound 71] | ≤ 100 nM | + (cell viability is greater than 50% at the concentration of 1000 nM) |  |  |  | < 100 nM | + (cell viability is greater than 75% at the concentration of IC20) |  |
